± gives the standard deviation of the averaged measurements.
How the values were obtained:
Assay in all cases: surviving fraction relative to DMSO-only wells; higher = less growth inhibition
Conditions in all cases: exposure time: 5 days
SNX-5422 = compound: CC1(C)CC(=O)c2c(C(F)(F)F)nn(-c3ccc(C(N)=O)c(N[C@H]4CC[C@H](OC(=O)CN)CC4)c3)c2C1 [SNX-5422]
Summary of the method: (§1)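 A line counted only if its three screens reached replicate Pearson r >0.7 and median Z' >0.3. Tumour cells in log phase were seeded at 250–500 per well in 384-well plates and, after 24 hours, kept in continuous contact with inhibitors at 0.5, 1, 5, 10, 50, 100, 500 and 1000 nM for five days. Surviving fraction was taken from CellTiter-Glo luminescence relative to the median of DMSO-only wells.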

AFATINIB = compound: CN(C)C/C=C/C(=O)Nc1cc2c(Nc3ccc(F)c(Cl)c3)ncnc2cc1O[C@H]1CCOC1 [AFATINIB]
Summary of the method: as §1

SAPACITABINE = compound: CCCCCCCCCCCCCCCC(=O)Nc1ccn([C@@H]2O[C@H](CO)[C@@H](O)[C@@H]2C#N)c(=O)n1 [SAPACITABINE]
Summary of the method: as §1

MDV3100 = compound: CNC(=O)c1ccc(N2C(=S)N(c3ccc(C#N)c(C(F)(F)F)c3)C(=O)C2(C)C)cc1F [MDV3100]
Summary of the method: as §1

TIOGUANINE = compound: Nc1nc2[nH]cnc2c(=S)[nH]1 [TIOGUANINE]
Summary of the method: as §1

MDAMB361 BREAST gave a surviving fraction (SNX-5422; 50 nM) of 0.443 ± 0.025, a surviving fraction (SNX-5422; 100 nM) of 0.879 ± 0.2 and a surviving fraction (SNX-5422; 500 nM) of 0.307 ± 0.0076. It also gave a surviving fraction (SNX-5422; 1000 nM) of 0.294 ± 0.015, a surviving fraction (AFATINIB; 0.5 nM) of 0.932 ± 0.059 and a surviving fraction (AFATINIB; 1 nM) of 0.796 ± 0.034. The surviving fraction (AFATINIB; 5 nM) was 0.81 ± 0.041, the surviving fraction (AFATINIB; 10 nM) was 0.799 ± 0.06 and the surviving fraction (AFATINIB; 50 nM) was 0.682 ± 0.088. The surviving fraction (AFATINIB; 100 nM) was 0.629 ± 0.04, the surviving fraction (AFATINIB; 500 nM) was 0.535 ± 0.02 and the surviving fraction (AFATINIB; 1000 nM) was 0.459 ± 0.027. For the same test system, the surviving fraction (SAPACITABINE; 0.5 nM) was 0.711 ± 0.096, the surviving fraction (SAPACITABINE; 1 nM) was 0.624 ± 0.029 and the surviving fraction (SAPACITABINE; 5 nM) was 0.662 ± 0.06. It also gave a surviving fraction (SAPACITABINE; 10 nM) of 0.648 ± 0.069, a surviving fraction (SAPACITABINE; 50 nM) of 0.868 ± 0.097 and a surviving fraction (SAPACITABINE; 100 nM) of 0.771 ± 0.1. For the same test system, the surviving fraction (SAPACITABINE; 500 nM) was 0.908 ± 0.093, the surviving fraction (SAPACITABINE; 1000 nM) was 0.872 ± 0.041 and the surviving fraction (MDV3100; 0.5 nM) was 0.907 ± 0.073. The surviving fraction (MDV3100; 1 nM) was 0.81 ± 0.075, the surviving fraction (MDV3100; 5 nM) was 0.935 ± 0.068 and the surviving fraction (MDV3100; 10 nM) was 0.874 ± 0.074. It also gave a surviving fraction (MDV3100; 50 nM) of 0.831 ± 0.14, a surviving fraction (MDV3100; 100 nM) of 0.806 ± 0.074 and a surviving fraction (MDV3100; 500 nM) of 0.921 ± 0.085. For the same test system, the surviving fraction (MDV3100; 1000 nM) was 0.831 ± 0.077, the surviving fraction (TIOGUANINE; 0.5 nM) was 0.914 ± 0.011 and the surviving fraction (TIOGUANINE; 1 nM) was 0.845 ± 0.011. The surviving fraction (TIOGUANINE; 5 nM) was 0.881 ± 0.0085, the surviving fraction (TIOGUANINE; 10 nM) was 0.884 ± 0.062 and the surviving fraction (TIOGUANINE; 50 nM) was 0.846 ± 0.018. The surviving fraction (TIOGUANINE; 100 nM) was 0.955 ± 0.054, the surviving fraction (TIOGUANINE; 500 nM) was 0.882 ± 0.067 and the surviving fraction (TIOGUANINE; 1000 nM) was 0.963 ± 0.043.
